These results are taken from patent publication US6124460A, “Isoquinuclidine derivatives, method of manufacturing the same and therapeutic agents for hypercholesterolemia containing these compounds” (Kotobuki Pharmaceutical Co. Ltd., priority 1998, dated 2000).

Where a name gives a salt, the structure may show the parent alone.

The subject of one assay is Sterol Biosynthesis. In words: Assay of sterol biosynthesis in rats (inhibition of cholesterol biosynthesis). It is filed as in vivo. Conditions: female Sprague-Dawley rats, liver; for inhibition at 30 mg/kg: po, vs vehicle-treated controls; for inhibition at 30 mg/kg / Inhibition of cholesterol biosynthesis (N.E.; no effect at a dose in the parentheses): 30 mg/kg p.o.
The target of assay [1] is T1, Squalene Synthase in Rat Liver Microsomes (Rattus norvegicus, UniProt Q02769).
T1 construct: microsomes were prepared from male Sprague-Dawley rat; from tissue; host or cells: rat liver microsomes (male Sprague-Dawley)
T1 sequence (Q02769 1-416): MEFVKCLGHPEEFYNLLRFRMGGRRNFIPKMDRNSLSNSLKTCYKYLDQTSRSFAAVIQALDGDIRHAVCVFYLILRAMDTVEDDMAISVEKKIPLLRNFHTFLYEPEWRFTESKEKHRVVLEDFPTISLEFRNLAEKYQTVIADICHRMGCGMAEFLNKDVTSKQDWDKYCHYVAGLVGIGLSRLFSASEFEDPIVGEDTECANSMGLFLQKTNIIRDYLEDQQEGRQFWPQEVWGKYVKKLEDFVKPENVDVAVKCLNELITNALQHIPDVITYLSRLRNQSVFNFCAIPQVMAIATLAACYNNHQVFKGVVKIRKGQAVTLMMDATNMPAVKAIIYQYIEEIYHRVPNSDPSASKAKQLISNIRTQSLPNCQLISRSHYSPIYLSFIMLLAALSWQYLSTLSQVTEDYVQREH
Briefly: Assay of squalene synthase (SQS) in rat liver microsomes. Type of assay: biochemical, male Sprague-Dawley rat. As to conditions: for IC50: 2.5 μM FPP, pH 7.4, 30 min at 37° C., read-out: Inhibition of SQS IC50; for Inhibition of SQS (N.E.; no effect at a dose in the parentheses): at 10^-5 M. The protocol: 1. Assay of Squalene Synthase in Rat Liver Microsomes Squalene synthase assay was performed in accordance with the method described by [NT] (Biochem. Pharmacol., 51, 1477 (1996)). That is to say, microsomes were prepared from male Sprague-Dawley rat (weight range 250-300 g) by homogenising in 50 mM phosphate buffer, pH 7.4, 5.0 mM MgCl2, 1.0 mM EDTA, and 1.0 mM dithiothreitol using a polytron (Kinetica, Sweden). The homogenates were centrifuged at 10,000 g for 20 min at 4° C., and, after spinning the supernatants were poured into the tube through cotton gauze. Microsomes were then isolated from the supernatant by centrifugation at 178,000 g for 90 min at 4° C. Microsomes were then resuspended in homogenisation buffer and stored in aliquots at -80° C. until use. For in vitro studies, the compounds were dissolved in DMSO. The squalene synthase reaction system in a volume of 100 μl contained 50 mM phosphate buffer, pH 7.4, 5.0 mM MgCl2, 10 mM KF, 0.5 mM NADPH, 50 mM ascorbic acid, 20U /ml ascorbate oxidase, 2.5 μM farnesyl-pyrophosphate (FPP) and microsomes, 40 μg/ml. The compounds (in 1 μl DMSO), microsomes (in 10 μl buffer) and other reagent ([…]) were pre-incubated for 5 min at 37° C. The reactions were started by the addition of 5 μl of an aqueous solution of FPP containing about 0.1 μCi of [H] FPP; incubations were at 37° C. for 30 min. The reactions were then stopped by the addition of 50 μl of 20% KOH in 50% ethanol. […] The IC50 values were calculated.

Broadly, the ED50 is the midpoint of the dose-response relation. A high value points to a need for a large dose. Usually IC50 stands for the concentration that inhibits the measured activity by half. As to `C#Cc1ccc(OCCCN2C(=O)C3CCC2CC3)cc1` [Compound 5, 2-[3-(4-ethynylphenoxy)propane-1-yl]-2-azabicyclo[2.2.2]octane-3-one], in the assay with Sterol Biosynthesis (Rattus norvegicus, oral gavage, [H] mevalonolactone i.p. after 1 hr), it took a dose of 13.4 mg/kg to reach the 50% effect level (ED50). The IC50 in assay [1] came out at 11 nM.

With `CCOC(=O)C#Cc1ccc(OCCCN2C(=O)C3CCC2CC3)cc1` [Compound 6, Ethyl 4-[3-(3-oxo-2-azabicyclo[2.2.2]octan-2-yl)propoxy]phenylpropiolate], in assay [1], the IC50 was 3100 nM.

As for `O=C(O)C#Cc1ccc(OCCCN2C(=O)C3CCC2CC3)cc1` [Compound 7, 4-[3-(3-oxo-2-azabicyclo[2.2.2]octan-2-yl)propoxy]phenylpropiolic acid], the IC50 in assay [1] came to 490 nM.

In general, inhibition refers to how much of the control response was suppressed. Compound `C#Cc1ccc(OCCCN2CC3CCC2CC3)cc1` [Compound 10, 2-[3-(4-ethynylphenoxy)propane-1-yl]-2-azabicyclo[2.2.2]octane hydrochloride] came in with an inhibition at 30 mg/kg with Sterol Biosynthesis (Rattus norvegicus) of 48.6%. For the same compound, the IC50 in assay [1] came out at 19 nM.

Consider `CCOC(=O)C#Cc1ccc(OCCCN2CC3CCC2CC3)cc1` [Compound 12, Ethyl 4-[3-(2-azabicyclo[2.2.2]octan-2-yl)propoxy]phenylpropiolate hydrochloride], for which the IC50 in assay [1] was 64 nM.

In the assay on Sterol Biosynthesis (Rattus norvegicus), `C#Cc1ccc(OCCN2C(=O)C3CCC2CC3)cc1` [Compound 13, 2-[2-(4-ethynylphenoxy)ethyl]-2-azabicyclo[2.2.2]octane-3-one] showed an inhibition at 30 mg/kg of 30.3%. The “Inhibition of SQS (N.E.; no effect at a dose in the parentheses)” value in assay [1] is given as “N.E”.

On to `C#Cc1ccc(OCCCCN2C(=O)C3CCC2CC3)cc1` [Compound 14, 2-[4-(4-ethynylphenoxy)butane-1-yl]-2-azabicyclo[2.2.2]-octane-3-one], for which the IC50 in assay [1] came out at 490 nM.

On to `CCOC(=O)c1ccc(C#Cc2ccc(OCCCN3C(=O)C4CCC3CC4)cc2)cc1` [Compound 15, Ethyl 4-[4-[3-(3-oxo-2-azabicyclo[2.2.2]octan-2-yl)propoxy]phenylethynyl]-benzoate], for which the IC50 in assay [1] was determined as 410 nM.

Turning to `O=C(O)c1ccc(C#Cc2ccc(OCCCN3C(=O)C4CCC3CC4)cc2)cc1` [Compound 16, 4-[4-[3-(3-oxo-2-azabicyclo[2.2.2]octan-2-yl)propoxy]phenylethynyl]-benzoic acid], the “Inhibition of cholesterol biosynthesis (N.E.; no effect at a dose in the parentheses)” value in the assay on Sterol Biosynthesis is recorded as “N.E”. The IC50 in assay [1] is 23 nM.

`Cl.O=C(O)c1ccc(C#Cc2ccc(OCCCN3CC4CCC3CC4)cc2)cc1` [Compound 19, 4-[4-[3-(2-azabicyclo[2.2.2]octan-2-yl)propoxy]phenylethynyl]-benzoic acid hydrochloride]: in the assay on Sterol Biosynthesis, the “Inhibition of cholesterol biosynthesis (N.E.; no effect at a dose in the parentheses)” value is given as “N.E”. The IC50 in assay [1] stood at 39 nM.

In the case of `CCOC(=O)c1ccc(C#Cc2ccc(OCCCN3CC4CCC3CC4)cc2)cc1` [Compound 20, Ethyl 4-[4-[3-(2-azabicyclo[2.2.2]octan-2-yl)propoxy]phenylethynyl]-benzoate hydrochloride], in assay [1], the IC50 stood at 690 nM.

With `O=C(O)c1ccc(C#Cc2ccc(OCCCN3C(=O)C4CCC3CC4)cc2)s1` [Compound 21, 5-[4-[3-(3-oxo-2-azabicyclo[2.2.2]octan-2-yl)propoxy]phenylethynyl]-thiophene-2-carboxylic acid], the IC50 in assay [1] came to 56 nM.

In the assay with Sterol Biosynthesis (Rattus norvegicus), `O=C1C2CCC(CC2)N1CCCOc1ccc(C#Cc2cccc3ncccc23)cc1` [Compound 22, 2-[3-[4-(quinolin-5-yl-ethynyl)phenoxy]propan-1-yl]-2-azabicyclo[2.2.2]-octan-3-one hydrochloride] had an inhibition at 30 mg/kg of 25.1%. For the same compound, the IC50 in assay [1] stood at 15 nM.

`O=C1C2CCC(CC2)N1CCCOc1ccc(C#Cc2ccc(-c3cccc4ncccc34)cc2)cc1` [Compound 23, 2-[3-[4-[4-(quinolin-5-yl)phenylethynyl]phenoxy]propan-1-yl]-2-azabicyclo[2.2.2]octan-3-one hydrochloride]: in the assay with Sterol Biosynthesis (Rattus norvegicus), testing at 30 mg/kg gave an inhibition of 46.7%. In addition, the IC50 in assay [1] is 69 nM.

Regarding `O=C1C2CCC(CC2)N1CCCOc1ccc(C#Cc2ccc(N3C(=O)C4CCC3CC4)cc2)cc1` [Compound 24, 2-[3-[4-[4-(3-oxo-2-azabicyclo[2.2.2]octan-2-yl)phenylethynyl]phenoxy]propan-1-yl]-2-azabicyclo[2.2.2]octan-3-one], the IC50 in assay [1] worked out at 56000 nM.

In the case of `C(#Cc1cccc2ncccc12)c1ccc(OCCCN2CC3CCC2CC3)cc1` [Compound 25, 2-[3-[4-(quinolin-5-yl-ethynyl)phenoxy]propan-1-yl]-2-azabicyclo[2.2.2]-octane dihydrochloride], the IC50 in assay [1] was 31 nM.

`C#Cc1ccc(OCCCN2C(=O)C3CCC2CC3)c(CC=C)c1` [Compound 37, 2-[3-[(2-allyl-4-ethynyl)phenoxy]propane-1-yl]-2-azabicyclo[2.2.2]oct-3-one]: the “Inhibition of SQS (N.E.; no effect at a dose in the parentheses)” value in assay [1] is “N.E”.

Take `C#Cc1ccc(OCCCN2CC3CCC2CC3)c(CC=C)c1` [Compound 38, 2-[3-[(2-Allyl-4-ethynyl)phenoxy]propane-1-yl]-2-azabicyclo[2.2.2]octane hydrochloride]: 30 mg/kg produced 50.4% inhibition in the assay with Sterol Biosynthesis (Rattus norvegicus). Moreover, the IC50 in assay [1] was 11 nM.
